This assay relates to production of IL-13 and IFN-γ by OVA-stimulated mouse splenocytes. Kind of assay: Cytokine production in OVA-stimulated splenocyte cultures, ELISA (Example 3). In kind it is cell-based. The conditions noted are these: 3 days exposure in vitro, FIG. 5A/5B. (In an ELISA, binding on a coated surface is turned into a signal by an enzyme label.)

Each structure is given as a SMILES string.

Description: The purpose of this study was to assess the ability of A. arguta extracts that originate from plant parts other than the fruit, or from alternative preparations of the fruit (i.e., other than the extracts described in U.S. Patent Publication No. 2004/0037909, supra), to modulate cytokine production (IL-13 and IFNγ) in splenocyte cultures derived from ovalbumin-sensitized mice, using ELISA analysis. The following samples (prepared as described above) were tested: water extracts of the stem, root, and bark of A. arguta, prepared as described in Example 1; “boiled” fresh fruit preparations; the fruit juice concentrate prepared as described in Example 1; FD001 (large scale equivalent of PG102T) prepared as described in Example 1; FD001 powder prepared as described in Example 1 (used for clinical trials described below); a room temperature water extract of the dried A. arguta fruit; the EtOAc extract prepared as described in Example 1; and aqueous remainder, also described in Example 1. In addition, the activity of three known immunosuppressive compounds, cyclosporin, dexamethasone, and quercetin were evaluated as controls.
Preparation of the splenocytes was performed in a manner identical to that described above for Example 2. […]
The cytokine levels in the culture supernatants from all treatment and control wells were determined by ELISA assay. […]

Turning to `O=c1c(O)c(-c2ccc(O)c(O)c2)oc2cc(O)cc(O)c12` [quercetin], the “concentration of potent activity (suppression of IL-13 and IFN-γ)” value is 1 to 25 µM.

These data come from patent publication US20080175888A1, “Combination Therapy Comprising Actinidia and Steroids and Uses Thereof” (priority 2005, published 2008).
